Experimental data reported in ChEMBL document CHEMBL1150788, “In vitro susceptibility of Sporothrix schenckii to six antifungal agents determined using three different methods” (2007).

What was measured:
Format in all cases: functional
Sporothrix schenckii [1] = test: Antifungal activity against Sporothrix schenckii P30915 isolate from cutaneous-lymphatic sporotrichosis patient after 72 hrs by ATB Fungus 2 method
Sporothrix schenckii [2] = test: Antifungal activity against Sporothrix schenckii P30915 isolate from cutaneous-lymphatic sporotrichosis patient after 72 hrs by Sensititre YeastOne method
Sporothrix schenckii [3] = test: Antifungal activity against Sporothrix schenckii PJRC002 isolate from cutaneous-lymphatic sporotrichosis patient after 72 hrs by Sensititre YeastOne method
Sporothrix schenckii [4] = test: Antifungal activity against Sporothrix schenckii P14036 isolate from cutaneous-lymphatic sporotrichosis patient after 72 hrs by Sensititre YeastOne method
Sporothrix schenckii [5] = test: Antifungal activity against Sporothrix schenckii P25013 isolate from cutaneous-lymphatic sporotrichosis patient after 72 hrs by modified NCCLS M38-A method
Sporothrix schenckii [6] = test: Antifungal activity against Sporothrix schenckii P30019 isolate from cutaneous-lymphatic sporotrichosis patient after 72 hrs by ATB Fungus 2 method
Sporothrix schenckii [7] = test: Antifungal activity against Sporothrix schenckii P30019 isolate from cutaneous-lymphatic sporotrichosis patient after 72 hrs by modified NCCLS M38-A method
Sporothrix schenckii [8] = test: Antifungal activity against Sporothrix schenckii P14954 isolate from cutaneous-lymphatic sporotrichosis patient after 72 hrs by Sensititre YeastOne method
Sporothrix schenckii [9] = test: Antifungal activity against Sporothrix schenckii P10012 isolate from cutaneous-lymphatic sporotrichosis patient after 72 hrs by modified NCCLS M38-A method
Sporothrix schenckii [10] = test: Antifungal activity against Sporothrix schenckii isolate from cutaneous-lymphatic sporotrichosis patient after 72 hrs by Sensititre YeastOne method
Sporothrix schenckii [11] = test: Antifungal activity against Sporothrix schenckii P14036 isolate from cutaneous-lymphatic sporotrichosis patient after 72 hrs by ATB Fungus 2 method
Sporothrix schenckii [12] = test: Antifungal activity against Sporothrix schenckii PSCC1 isolate from cutaneous-lymphatic sporotrichosis patient after 72 hrs by Sensititre YeastOne method
Sporothrix schenckii [13] = test: Antifungal activity against Sporothrix schenckii P1621 isolate from cutaneous-lymphatic sporotrichosis patient after 72 hrs by modified NCCLS M38-A method
Sporothrix schenckii [14] = test: Antifungal activity against Sporothrix schenckii P1621 isolate from cutaneous-lymphatic sporotrichosis patient after 72 hrs by ATB Fungus 2 method
Sporothrix schenckii [15] = test: Antifungal activity against Sporothrix schenckii P26187 isolate from cutaneous-lymphatic sporotrichosis patient after 72 hrs by ATB Fungus 2 method
Sporothrix schenckii [16] = test: Antifungal activity against Sporothrix schenckii P30019 isolate from cutaneous-lymphatic sporotrichosis patient after 72 hrs by Sensititre YeastOne method
Sporothrix schenckii [17] = test: Antifungal activity against Sporothrix schenckii P30915 isolate from cutaneous-lymphatic sporotrichosis patient after 72 hrs by modified NCCLS M38-A method
Sporothrix schenckii [18] = test: Antifungal activity against Sporothrix schenckii P24255 isolate from cutaneous-lymphatic sporotrichosis patient after 72 hrs by modified NCCLS M38-A method
Sporothrix schenckii [19] = test: Antifungal activity against Sporothrix schenckii PSSA81 isolate from cutaneous-lymphatic sporotrichosis patient after 72 hrs by Sensititre YeastOne method
Sporothrix schenckii [20] = test: Antifungal activity against Sporothrix schenckii PSSA81 isolate from cutaneous-lymphatic sporotrichosis patient after 72 hrs by ATB Fungus 2 method
Pichia kudriavzevii [21] = test: Antifungal activity against Candida krusei ATCC 6258 […] after 72 hrs by ATB Fungus 2 method; conditions: ATCC 6258, 72 h
Sporothrix schenckii [22] = test: Antifungal activity against Sporothrix schenckii PJRC002 isolate from cutaneous-lymphatic sporotrichosis patient after 72 hrs by ATB Fungus 2 method
Sporothrix schenckii [23] = test: Antifungal activity against Sporothrix schenckii P14036 isolate from cutaneous-lymphatic sporotrichosis patient after 72 hrs by modified NCCLS M38-A method
Sporothrix schenckii [24] = test: Antifungal activity against Sporothrix schenckii P26187 isolate from cutaneous-lymphatic sporotrichosis patient after 72 hrs by modified NCCLS M38-A method
Sporothrix schenckii [25] = test: Antifungal activity against Sporothrix schenckii PJRC002 isolate from cutaneous-lymphatic sporotrichosis patient after 72 hrs by modified NCCLS M38-A method
Sporothrix schenckii [26] = test: Antifungal activity against Sporothrix schenckii P3287 isolate from cutaneous-lymphatic sporotrichosis patient after 72 hrs by modified NCCLS M38-A method
Sporothrix schenckii [27] = test: Antifungal activity against Sporothrix schenckii P1621 isolate from cutaneous-lymphatic sporotrichosis patient after 72 hrs by Sensititre YeastOne method
Sporothrix schenckii [28] = test: Antifungal activity against Sporothrix schenckii P24255 isolate from cutaneous-lymphatic sporotrichosis patient after 72 hrs by Sensititre YeastOne method
Sporothrix schenckii [29] = test: Antifungal activity against Sporothrix schenckii P14954 isolate from cutaneous-lymphatic sporotrichosis patient after 72 hrs by modified NCCLS M38-A method
Sporothrix schenckii [30] = test: Antifungal activity against Sporothrix schenckii SSA29 isolate from cutaneous-lymphatic sporotrichosis patient after 72 hrs by ATB Fungus 2 method
Sporothrix schenckii [31] = test: Antifungal activity against Sporothrix schenckii P20825 isolate from cutaneous-lymphatic sporotrichosis patient after 72 hrs by modified NCCLS M38-A method
Sporothrix schenckii [32] = test: Antifungal activity against Sporothrix schenckii P20825 isolate from cutaneous-lymphatic sporotrichosis patient after 72 hrs by Sensititre YeastOne method
Sporothrix schenckii [33] = test: Antifungal activity against Sporothrix schenckii P0019 isolate from cutaneous-lymphatic sporotrichosis patient after 72 hrs by Sensititre YeastOne method
Sporothrix schenckii [34] = test: Antifungal activity against Sporothrix schenckii P24223 isolate from cutaneous-lymphatic sporotrichosis patient after 72 hrs by modified NCCLS M38-A method
Sporothrix schenckii [35] = test: Antifungal activity against Sporothrix schenckii P24223 isolate from cutaneous-lymphatic sporotrichosis patient after 72 hrs by ATB Fungus 2 method
Pichia kudriavzevii [36] = test: Antifungal activity against Candida krusei ATCC 6258 […] after 72 hrs by Sensititre YeastOne method; conditions: ATCC 6258, 72 h
Sporothrix schenckii [37] = test: Antifungal activity against Sporothrix schenckii PGAC0016 isolate from cutaneous-lymphatic sporotrichosis patient after 72 hrs by Sensititre YeastOne method
Sporothrix schenckii [38] = test: Antifungal activity against Sporothrix schenckii isolate from cutaneous-lymphatic sporotrichosis patient after 72 hrs by ATB Fungus 2 method
Sporothrix schenckii [39] = test: Antifungal activity against Sporothrix schenckii P25013 isolate from cutaneous-lymphatic sporotrichosis patient after 72 hrs by ATB Fungus 2 method
Candida parapsilosis = test: Antifungal activity against Candida parapsilosis ATCC 22019 […] after 72 hrs by ATB Fungus 2 method; conditions: Lodderomyces parapsilosis, ATCC 22019, 72 h
Sporothrix schenckii [40] = test: Antifungal activity against Sporothrix schenckii P3287 isolate from cutaneous-lymphatic sporotrichosis patient after 72 hrs by Sensititre YeastOne method
Sporothrix schenckii [41] = test: Antifungal activity against Sporothrix schenckii P25013 isolate from cutaneous-lymphatic sporotrichosis patient after 72 hrs by Sensititre YeastOne method
Sporothrix schenckii [42] = test: Antifungal activity against Sporothrix schenckii P3287 isolate from cutaneous-lymphatic sporotrichosis patient after 72 hrs by ATB Fungus 2 method
Sporothrix schenckii [43] = test: Antifungal activity against Sporothrix schenckii P0019 isolate from cutaneous-lymphatic sporotrichosis patient after 72 hrs by modified NCCLS M38-A method
Sporothrix schenckii [44] = test: Antifungal activity against Sporothrix schenckii P20825 isolate from cutaneous-lymphatic sporotrichosis patient after 72 hrs by ATB Fungus 2 method

CCC(C)n1ncn(-c2ccc(N3CCN(c4ccc(OCC5COC(Cn6cncn6)(c6ccc(Cl)cc6Cl)O5)cc4)CC3)cc2)c1=O (configuration not stated) [ITRACONAZOLE]
0.13 µg/mL: MIC (Sporothrix schenckii [3]) | MIC (Sporothrix schenckii [32]) | MIC (Sporothrix schenckii [33]) | MIC (Sporothrix schenckii [37])
8 µg/mL: MIC (Sporothrix schenckii [34])
2 µg/mL: MIC (Sporothrix schenckii [1]) | MIC (Sporothrix schenckii [14]) | MIC (Sporothrix schenckii [15]) | MIC (Sporothrix schenckii [35]) | MIC90 (Sporothrix schenckii [38]) | MIC (Sporothrix schenckii [42])
≤ 0.125 µg/mL: MIC (Candida parapsilosis)
0.5 µg/mL: MIC (Sporothrix schenckii [2]) | MIC (Sporothrix schenckii [5]) | MIC (Sporothrix schenckii [7]) | MIC (Sporothrix schenckii [9]) | MIC (Sporothrix schenckii [17]) | MIC (Sporothrix schenckii [18]) | MIC (Pichia kudriavzevii [21]) | MIC (Sporothrix schenckii [23]) | MIC (Sporothrix schenckii [24]) | MIC (Sporothrix schenckii [29]) | MIC (Sporothrix schenckii [30]) | MIC (Sporothrix schenckii [31])
0.25 µg/mL: MIC (Sporothrix schenckii [4]) | MIC (Sporothrix schenckii [8]) | MIC50 (Sporothrix schenckii [10]) | MIC90 (Sporothrix schenckii [10]) | MIC (Sporothrix schenckii [12]) | MIC (Sporothrix schenckii [16]) | MIC (Sporothrix schenckii [25]) | MIC (Sporothrix schenckii [26]) | MIC (Sporothrix schenckii [27]) | MIC (Sporothrix schenckii [28]) | MIC (Sporothrix schenckii [40]) | MIC (Sporothrix schenckii [41]) | MIC (Sporothrix schenckii [43])
1 µg/mL: MIC (Sporothrix schenckii [6]) | MIC (Sporothrix schenckii [11]) | MIC (Sporothrix schenckii [13]) | MIC (Sporothrix schenckii [20]) | MIC (Sporothrix schenckii [22]) | MIC (Pichia kudriavzevii [36]) | MIC50 (Sporothrix schenckii [38]) | MIC (Sporothrix schenckii [39]) | MIC (Sporothrix schenckii [44])
0.06 µg/mL: MIC (Sporothrix schenckii [19])
